Test: log P of the solvents used in the transglycosylation (Table 1)
Type: physicochemical
Conditions: property of the dialkyl amide solvent; method not described

| SMILES | logP |
| --- | --- |
| CCCCCCCC(=O)N(C)C [CDMA, caprylic dimethyl amide] | 1.42 |
| CC(O)C(=O)N(C)C (centres unmarked) [LDMA, lactic acid dimethyl amide] | -0.69 |

From patent EP2138586A1, “Process for the regioselective preparation of disaccharides or oligosaccharides” (Cognis IP Management GmbH, priority 2008, dated 2009)
